Experimental findings from US12178802B1, “3-(1-(3-(dimethylamino)propyl)-4,5-diphenyl-1H-imidazol-2-yl)pyridin-2-ol as an antitumor and antimicrobial compound” (KING FAISAL UNIVERSITY, priority 2023, dated 2024) are described below.

SMILES strings stand for the structures.

Common to all, as to test: cup-plate agar diffusion antimicrobial activity
Type in all cases: cell-based

Assay [1] deals with Staphylococcus epidermidis. An excerpt: (§1) Antibacterial activity of the synthesized compound has been tested using Gram-negative strains such as Escherichia coli, Salmonella enteric, Pseudomonas aeruginosa, and Pseudomonas putida; and Gram-positive strains such as Staphylococcus aureus, Staphylococcus epidermidis, Bacillus subtilis, and Micrococcus luteus. Additionally, antifungal activity has been tested using different Candida strains such as Candida albicans, Candida glabrata, and Candida krusei.
(§2) The present compound 3-(1-(3-(Dimethylamino)propyl)-4,5-diphenyl-1H-imidazol-2-yl)pyridin-2-ol was dissolved in DMF followed by dilution in buffer to obtain final concentrations of 60,000, 30,000 and 15,000 ppm. The final concentration of DMF was less than 2% in the final buffer solutions.
(§3) Negative control was performed using DMF diluted to similar final concentrations of compound solutions. Ampicillin and Geneticin were used as positive controls with similar dilutions and final concentrations.
(§4) Using the cup-plate agar diffusion method, a definite volume of the microbial suspension (inoculums) was mixed with sterilized agar media. Plates were prepared and left to solidify and then wells were prepared using a sterile cork borer. The wells were filled with an equal volume of a solution of synthesized compounds and standard drugs. The plates were incubated for a definite time under specified conditions. The zones of inhibition were measured in cm as a parameter of antimicrobial activity.
(§5) The tested antimicrobial activity of the 3-(1-(3-(Dimethylamino)propyl)-4,5-diphenyl-1H-imidazol-2-yl)pyridin-2-ol, as compared to ampicillin, can be seen in Table 1, below, with zones of inhibition measured in cm.

In a further assay the test system is Micrococcus luteus.
Description: as §1, §2, §3, §4, §5

For another assay, the system named is Pseudomonas putida.
Description: as §1, §2, §3, §4, §5

A further assay concerns Staphylococcus aureus.
Description: as §1, §2, §3, §4, §5

Another assay has as its system Pseudomonas aeruginosa.
Description: as §1, §2, §3, §4, §5

Another assay concerns Salmonella enterica.
Description: as §1, §2, §3, §4, §5

The test system of another assay is Escherichia coli.
Description: as §1, §2, §3, §4, §5

In a further assay the test system is Bacillus subtilis.
Description: as §1, §2, §3, §4, §5

Consider `CN(C)CCCn1c(-c2cccnc2O)nc(-c2ccccc2)c1-c1ccccc1` [3-(1-(3-(Dimethylamino)propyl)-4,5-diphenyl-1H-imidazol-2-yl)pyridin-2-ol], for which the zones of inhibition in assay [1] (concentration 15) was 2.1 cm; in assay [1] (concentration 30), 3.0 cm; in assay [1] (concentration 60), 3.3 cm; in the assay with Micrococcus luteus (concentration 15), 1.2 cm; with Micrococcus luteus (concentration 30), 2.4 cm; in the assay on Micrococcus luteus (concentration 60), 3.2 cm. For the same compound, the zones of inhibition with Pseudomonas putida (concentration 15) turned out to be 0.1 cm; in the assay with Pseudomonas putida (concentration 30), 0.5 cm; with Pseudomonas putida (concentration 60) it was 1.1 cm; in the assay on Staphylococcus aureus (concentration 15), 2.0 cm; in the assay with Staphylococcus aureus (concentration 30), 2.9 cm; with Staphylococcus aureus (concentration 60) it was 3.9 cm. For the same compound, the zones of inhibition in the assay with Pseudomonas aeruginosa (concentration 15) is given as 0.6 cm; with Pseudomonas aeruginosa (concentration 30), 0.7 cm; in the assay on Pseudomonas aeruginosa (concentration 60), 1.1 cm; with Salmonella enterica (concentration 15), 0.7 cm; in the assay with Salmonella enterica (concentration 30) it was 1.0 cm; with Salmonella enterica (concentration 60), 1.7 cm. Further, the zones of inhibition in the assay on Escherichia coli (concentration 15) is 0.6 cm; in the assay with Escherichia coli (concentration 30) it was 0.9 cm; with Escherichia coli (concentration 60), 1.00 cm; in the assay with Bacillus subtilis (concentration 15) it was 1.1 cm; in the assay on Bacillus subtilis (concentration 30), 1.5 cm; with Bacillus subtilis (concentration 60), 2.7 cm.

For `CC1(C)S[C@@H]2[C@H](NC(=O)[C@H](N)c3ccccc3)C(=O)N2[C@H]1C(=O)O` [Ampicillin], the zones of inhibition in assay [1] (concentration 15) came to 2.5 cm; in assay [1] (concentration 30), 3.0 cm; in assay [1] (concentration 60), 3.5 cm; in the assay with Micrococcus luteus (concentration 15) it was 1.8 cm; in the assay on Micrococcus luteus (concentration 30), 2.8 cm; in the assay on Micrococcus luteus (concentration 60), 3.6 cm. The zones of inhibition worked out at 0.3 cm in the assay with Pseudomonas putida (concentration 15); 0.6 cm with Pseudomonas putida (concentration 30); 1.0 cm with Pseudomonas putida (concentration 60); 2.9 cm in the assay on Staphylococcus aureus (concentration 15); 3.5 cm with Staphylococcus aureus (concentration 30); 4.0 cm with Staphylococcus aureus (concentration 60). Besides, the zones of inhibition came out at 0.4 cm with Pseudomonas aeruginosa (concentration 15); 0.8 cm in the assay on Pseudomonas aeruginosa (concentration 30); 1.2 cm in the assay on Pseudomonas aeruginosa (concentration 60); 0.9 cm in the assay on Salmonella enterica (concentration 15); 1.3 cm in the assay on Salmonella enterica (concentration 30); 1.6 cm in the assay on Salmonella enterica (concentration 60). The zones of inhibition worked out at 0.4 cm in the assay on Escherichia coli (concentration 15); 0.8 cm with Escherichia coli (concentration 30); 1.2 cm in the assay with Escherichia coli (concentration 60); 1.2 cm with Bacillus subtilis (concentration 15); 1.9 cm in the assay with Bacillus subtilis (concentration 30); 2.3 cm in the assay on Bacillus subtilis (concentration 60).
